Patent US9174991B2, “Crystalline form of pemetrexed disodium” (Azad Pharmaceutical Ingredients AG, priority 2009, dated 2015)
Where a name gives a salt, the structure may show the parent alone. Read-outs that look alike come from different tables or passages of the source.

What was measured:
[1] = starting material, before storage
Description: HPLC analysis was done on an Agilent 1100 system equipped with DAD detector using a Zorbax SB-Phenyl column (150×4.6 mm, 3 μm). Measurements were done at 230 nm wavelengths at 25° C. using a flow of 1.0 mL/min and 8 min post-run time. As mobile phase water containing 0.03% TFA and acetonitrile containing 0.025% TFA were used, solvents were HPLC grade. Sample preparation: 10 mg sample in 25 mL water:ACN=1:1, 5 uL injection. Retention time Pemetrexed Disodium: 10.3 min.
PXRD: Routine PXRD measurements were carried out on a Bruker AXS D8Advance diffractometer equipped with CuKα source with CuKβ filter and a VANTEC detector (Ser. No.: 202964). Measurement parameters: 3° 2theta to 39.9° 2theta, step time: 2s, step size: 0.022°, T=25° C., X-ray generator: 35 kV/40 mA.

[2] = for change in HPLC purity in the presence of light (in words) / change in color in the presence of light (in words): text says after 16 d
Description: (§1) To investigate the stability of the different forms of Pemetrexed Disodium a stability test concerning storage at different relative humidity, storage in the presence of light and stability under drying conditions was carried out.
The samples were stored in double PE plastic bags and exposed to daylight IT=20° C. to 25° C. IPCs were taken after 15 d.
(§2) HPLC analysis was done on an Agilent 1100 system equipped with DAD detector using a Zorbax SB-Phenyl column (150×4.6 mm, 3 μm). Measurements were done at 230 nm wavelengths at 25° C. using a flow of 1.0 mL/min and 8 min post-run time. […] Sample preparation: 10 mg sample in 25 mL water:ACN=1:1, 5 uL injection.

[3] = 70° C., 5 mbar; for change in HPLC-purity upon vacuum drying (in words): up to 9 d
Description: as §1
Four samples were stored at 70° 5 mbar in laboratory vacuum oven. IPC were taken after 2 d, 9 d
as §2

[4] = for H2O (KFT) / HPLC-purity (10.5 min) / HPLC-purity / PXRD: dark, air; for change in HPLC purity in any of the samples (in words): all relative humidities tested (5% to 70%)
[5] = double PE plastic bags, daylight, 20° C. to 25° C., 15 d
[6] = 2 d, listed as Pemetrexed Disodium Heptahydrate
[7] = 5% to 12% relative humidity, 2 d, measured 11.7% (Form A 5.8%), 23° C.
[8] = 5% to 12% relative humidity, 5 d, measured 9.5% (Form A 5.3%), 24° C.
[9] = 5% to 12% relative humidity, 9 d, measured 9% (Form A 6%), 24° C.
[10] = 5% to 12% relative humidity, 16 d, measured 8.5% (Form A 5.8%), 24° C.
[11] = 27% to 33% relative humidity, 2 d, measured 29.8% (Form A 28%), 23° C.
[12] = 27% to 33% relative humidity, 5 d, measured 29% (Form A 27%), 24° C.
[13] = 27% to 33% relative humidity, 9 d, measured 31% (Form A 30%), 24° C.
[14] = 27% to 33% relative humidity, 16 d, measured 30.4% (Form A 28.7%), 24° C.
[15] = 39% to 50% relative humidity, 2 d, measured 41.1% (Form A 39%), 23° C.
[16] = 39% to 50% relative humidity, 5 d, measured 42.8% (Form A 38.6%), 24° C.
[17] = 39% to 50% relative humidity, 9 d, measured 48% (Form A 47%), 24° C.
[18] = 39% to 50% relative humidity, 16 d, measured 47.3% (Form A 46.4%), 24° C.
[19] = 60% to 70% relative humidity, 2 d, measured 61%, 22° C. (Form A 54%, 23° C)
[20] = 60% to 70% relative humidity, 5 d, measured 63% (Form A 57%), 24° C.
[21] = 60% to 70% relative humidity, 9 d, measured 69% (Form A 68%), 24° C.
[22] = 60% to 70% relative humidity, 16 d, measured 66.9% (Form A 67.2%), 24° C.
[23] = daylight, listed as Pemetrexed Disodium Form A

With `Nc1nc(O)c2c(CCc3ccc(C(=O)N[C@@H](CCC(=O)O)C(=O)O)cc3)c[nH]c2n1` [Heptahydrate, disodium N-[4-[2-(2-amino-4,7-dihydro-4-oxo-3H-pyrrolo[2,3-d]-pyrimidin-5-yl)ethyl]benzoyl]-L-glutamic acid salt] the “HPLC-purity (10.5 min)” value [1] was 99.90%, the HPLC-purity ([2]; daylight study, Start) was 99.63% and the “change in HPLC purity in the presence of light (in words)” value (“change in HPLC purity in the presence” for short) ([2]; daylight) was “do not show significant changes”. For the same compound, the “change in color in the presence of light (in words)” value (from here on “change in color in the presence”) ([2]; daylight) was “do not show significant changes”, the HPLC-purity [2, 5] was 99.65% and the “HPLC-purity (10.5 min)” value ([3]; 2 d) was 99.86%. The PXRD ([3]; 2 d) was 2.5 hydrate, the “H2O (KFT)” value [3, 6] was 8.4% and the PXRD [3, 6] was “only 2.5 hydrate”. The “HPLC-purity (10.5 min)” value ([3]; 9 d) was 99.80%, the “change in HPLC-purity upon vacuum drying (in words)” value ([3]; listed as Pemetrexed Disodium Heptahydrate) was “No significant change” and the “H2O (KFT)” value [4, 7] was 19.7%. For the same compound, the “HPLC-purity (10.5 min)” value [4, 7] was 99.70%, the “HPLC-purity (10.5 min)” value [4, 8] was 99.73% and the “HPLC-purity (10.5 min)” value [4, 9] was 99.86%. For the same compound, the HPLC-purity [4, 10] was 99.88%, the PXRD ([4]; 5% to 12% relative humidity, 16 d, measured 8.5% (Form A 5.8%), 24° C., listed as Pemetrexed Disodium Heptahydrate) was “almost complete transformation to Pemetrexed Disodium 2.5 hydrate” and the HPLC-purity [4, 11] was 99.74%. The HPLC-purity [4, 12] was 99.62%, the HPLC-purity [4, 13] was 99.84% and the HPLC-purity [4, 14] was 99.91%. The PXRD [4, 14] was “Heptahydrate”, the HPLC-purity [4, 15] was 99.84% and the HPLC-purity [4, 16] was 99.78%. The PXRD [4, 16] was “Heptahydrate”, the HPLC-purity [4, 17] was 99.81% and the PXRD [4, 17] was “Heptahydrate”. For the same compound, the HPLC-purity [4, 18] was 99.91%, the PXRD [4, 18] was “Heptahydrate” and the HPLC-purity [4, 19] was 99.63%. The HPLC-purity [4, 20] was 99.81%, the PXRD [4, 20] was “Heptahydrate” and the HPLC-purity [4, 21] was 99.81%. For the same compound, the PXRD [4, 21] was “Heptahydrate”, the HPLC-purity [4, 22] was 99.90% and the PXRD [4, 22] was “Heptahydrate”. The “change in HPLC purity in any of the samples (in words)” value ([4]; up to 16 d) was “No significant change”.

With `Nc1nc(O)c2c(CCc3ccc(C(=O)N[C@@H](CCC(=O)O)C(=O)O)cc3)c[nH]c2n1` [Form A, disodium N-[4-[2-(2-amino-4,7-dihydro-4-oxo-3H-pyrrolo[2,3-d]-pyrimidin-5-yl)ethyl]benzoyl]-L-glutamic acid salt] the “HPLC-purity (10.5 min)” value [1] was 99.59%, the PXRD [1] was “Form A” and the HPLC-purity ([2]; daylight study, Start) was 99.71%. The “change in HPLC purity in the presence” value [2, 23] was “a lot of decomposition products”, the “change in color in the presence” value [2, 23] was “significant formation of color” and the Aspect [2, 5] was “beige”. The “H2O (KFT)” value [2, 5] was 2.44%, the HPLC-purity [2, 5] was 95.83% and the “HPLC-purity (10.5 min)” value ([3]; 2 d) was 99.67%. For the same compound, the PXRD ([3]; 2 d) was “Form A”, the Aspect ([3]; 9 d) was “beige” and the “HPLC-purity (10.5 min)” value ([3]; 9 d) was 99.41%. The “change in HPLC-purity upon vacuum drying (in words)” value ([3]; listed as Pemetrexed Disodium Form A) was “significant decrease”, the “change in water content (in words)” value ([4]; 5% to 12% rel. humidity (for Form A and Form IV: 7% to 12%), up to 16 d, listed as Pemetrexed Disodium Form A) was “does not show a significant change” and the “change in HPLC-purity (in words)” value ([4]; 5% to 12% rel. humidity (text for Form A: 7% to 12%), up to 16 d, listed as Pemetrexed Disodium Form A) was “does not show a significant change”. The “H2O (KFT)” value [4, 7] was 3.5%, the “HPLC-purity (10.5 min)” value [4, 7] was 99.59% and the PXRD [4, 7] was “Form A”. The “HPLC-purity (10.5 min)” value [4, 8] was 99.33%, the PXRD [4, 8] was “Form A” and the “HPLC-purity (10.5 min)” value [4, 9] was 99.58%. For the same compound, the PXRD [4, 9] was “Form A”, the HPLC-purity [4, 10] was 99.50% and the PXRD [4, 10] was “Form A”. For the same compound, the “change in HPLC-purity (in words)” value ([4]; 27% to 33% rel. humidity, after 16 d) was “without visible change”, the “change in water content (in words)” value ([4]; 27% to 33% rel. humidity, up to 16 d, listed as Pemetrexed Disodium Form A) was “significant in increase” and the HPLC-purity [4, 11] was 99.60%. The HPLC-purity [4, 12] was 99.43%, the PXRD [4, 12] was “Form A” and the HPLC-purity [4, 13] was 99.57%. The PXRD [4, 13] was “Form A”, the HPLC-purity [4, 14] was 99.69% and the PXRD [4, 14] was “Form A”. For the same compound, the HPLC-purity [4, 15] was 99.68%, the PXRD [4, 15] was “Form A” and the HPLC-purity [4, 16] was 99.64%. For the same compound, the PXRD [4, 16] was “Form A”, the HPLC-purity [4, 17] was 99.62% and the PXRD [4, 17] was “Form A”. The HPLC-purity [4, 18] was 99.70%, the PXRD [4, 18] was “Form A” and the “change in HPLC-purity (in words)” value ([4]; 40% to 50% rel. humidity, after 16 d) was “without visible change”. The “change in water content (in words)” value ([4]; 40% to 50% rel. humidity, up to 16 d, listed as Pemetrexed Disodium Form A) was “significant in increase”, the uptake of water ([4]; 60% to 70% rel. humidity) was 21% and the “change in HPLC-purity (in words)” value ([4]; 60% to 70% rel. humidity, after 9 d) was “without significant change”. The HPLC-purity [4, 19] was 99.71%, the PXRD [4, 19] was “Form A” and the HPLC-purity [4, 20] was 99.51%. For the same compound, the PXRD [4, 20] was “Form A”, the HPLC-purity [4, 21] was 99.71% and the PXRD [4, 21] was “Heptahydrate”. For the same compound, the PXRD ([4]; 60% to 70% relative humidity, 9 d, measured 69% (Form A 68%), 24° C., listed as Pemetrexed Disodium Form A) was “complete transformation to Pemetrexed Disodium Heptahydrate”, the HPLC-purity [4, 22] was 99.72% and the PXRD [4, 22] was “Heptahydrate”.

With `Nc1nc(O)c2c(CCc3ccc(C(=O)N[C@@H](CCC(=O)O)C(=O)O)cc3)c[nH]c2n1` [2.5 hydrate, disodium N-[4-[2-(2-amino-4,7-dihydro-4-oxo-3H-pyrrolo[2,3-d]-pyrimidin-5-yl)ethyl]benzoyl]-L-glutamic acid salt] the “HPLC-purity (10.5 min)” value [1] was 99.86%, the PXRD [1] was 2.5 hydrate and the HPLC-purity ([2]; daylight study, Start) was 99.73%. For the same compound, the “change in HPLC purity in the presence” value ([2]; daylight) was “do not show significant changes”, the “change in color in the presence” value ([2]; daylight) was “do not show significant changes” and the HPLC-purity [2, 5] was 99.74%. The “HPLC-purity (10.5 min)” value ([3]; 2 d) was 99.88%, the PXRD ([3]; 2 d) was 2.5 hydrate and the “HPLC-purity (10.5 min)” value ([3]; 9 d) was 99.80%. For the same compound, the “H2O (KFT)” value ([3]; 9 d, listed as Pemetrexed Disodium 2.5 hydrate) was 7.9%, the “change in HPLC-purity upon vacuum drying (in words)” value [3] was “no significant change” and the “change in water content (in words)” value ([4]; 5% to 12% rel. humidity (for Form A and Form IV: 7% to 12%), up to 16 d, listed as Pemetrexed Disodium 2.5 hydrate) was “no significant change”. For the same compound, the “change in HPLC-purity (in words)” value ([4]; 5% to 12% rel. humidity (text for Form A: 7% to 12%), up to 16 d, listed as Pemetrexed Disodium 2.5 hydrate) was “no significant change”, the “H2O (KFT)” value [4, 7] was 8.9% and the “HPLC-purity (10.5 min)” value [4, 7] was 99.74%. The PXRD [4, 7] was 2.5 hydrate, the “HPLC-purity (10.5 min)” value [4, 8] was 99.82% and the PXRD [4, 8] was 2.5 hydrate. For the same compound, the “HPLC-purity (10.5 min)” value [4, 9] was 99.90%, the PXRD [4, 9] was 2.5 hydrate and the HPLC-purity [4, 10] was 99.80%. The PXRD [4, 10] was 2.5 hydrate, the “change in water content (in words)” value ([4]; 27% to 33% rel. humidity, up to 16 d, listed as Pemetrexed Disodium 2.5 hydrate) was “slight increase” and the HPLC-purity [4, 11] was 99.82%. It also gave a PXRD [4, 11] of 2.5 hydrate, an HPLC-purity [4, 12] of 99.91% and a PXRD [4, 12] of 2.5 hydrate. For the same compound, the HPLC-purity [4, 13] was 99.84%, the PXRD ([4]; 27% to 33% relative humidity, 9 d, measured 31% (Form A 30%), 24° C., listed as Pemetrexed Disodium 2.5 hydrate) was “traces of Pemetrexed Disodium Heptahydrate” and the HPLC-purity [4, 14] was 99.64%. The HPLC-purity [4, 15] was 99.83%, the PXRD ([4]; 39% to 50% relative humidity, 2 d, measured 41.1% (Form A 39%), 23° C., listed as Pemetrexed Disodium 2.5 hydrate) was “formation of Pemetrexed Disodium Heptahydrate” and the HPLC-purity [4, 16] was 99.62%. For the same compound, the PXRD [4, 16] was “Heptahydrate”, the PXRD ([4]; 39% to 50% relative humidity, 5 d, measured 42.8% (Form A 38.6%), 24° C., listed as Pemetrexed Disodium 2.5 hydrate) was “transformation seems to be complete” and the HPLC-purity [4, 17] was 99.74%. For the same compound, the PXRD [4, 17] was “Heptahydrate”, the HPLC-purity [4, 18] was 99.86% and the PXRD [4, 18] was “Heptahydrate”. For the same compound, the “change in water content (in words)” value ([4]; 40% to 50% rel. humidity, up to 16 d, listed as Pemetrexed Disodium 2.5 hydrate) was “increase”, the HPLC-purity [4, 19] was 99.73% and the PXRD [4, 19] was “Heptahydrate”. The PXRD ([4]; 60% to 70% relative humidity, 2 d, measured 61%, 22° C. (Form A 54%, 23° C), listed as Pemetrexed Disodium 2.5 hydrate) was “transformation to Pemetrexed Disodium Heptahydrate is complete”, the HPLC-purity [4, 20] was 99.86% and the PXRD [4, 20] was “Heptahydrate”. The HPLC-purity [4, 21] was 99.84%, the PXRD [4, 21] was “Heptahydrate” and the HPLC-purity [4, 22] was 99.83%. For the same compound, the PXRD [4, 22] was “Heptahydrate” and the “change in HPLC purity in any of the samples (in words)” value ([4]; up to 16 d) was “No significant change”.
